Experimental data taken from US8501771B2, “Aminoalcohol-substituted aryldihydroisoquinolinones, process for their preparation and their use as medicaments” (Sanofi, priority 2006, dated 2013).

molecular target: T1, human MCH receptor (Homo sapiens, UniProt Q99705); assay: Functional IC50 of MCH1R antagonists: cellular calcium flux (FLIPR) after addition of agonist MCH; assay type: cell-based; settings: recombinant HEK293 cell line expressing the human MCH receptor
T1 construct: expressed in transfected cells
T1 sequence (Q99705 whole entry): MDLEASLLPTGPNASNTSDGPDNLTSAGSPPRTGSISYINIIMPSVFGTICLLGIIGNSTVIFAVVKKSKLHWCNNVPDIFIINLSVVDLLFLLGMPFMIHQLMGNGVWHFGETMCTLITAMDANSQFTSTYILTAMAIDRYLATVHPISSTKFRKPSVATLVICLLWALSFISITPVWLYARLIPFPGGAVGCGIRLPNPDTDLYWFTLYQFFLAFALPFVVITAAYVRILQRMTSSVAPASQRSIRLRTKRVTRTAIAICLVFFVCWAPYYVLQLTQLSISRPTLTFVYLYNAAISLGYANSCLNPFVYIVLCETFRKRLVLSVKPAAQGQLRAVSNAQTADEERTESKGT
Excerpt: Influence on the MCH receptor in vitro; determination of functional IC50 values of MCH1R antagonists
Cloning of the cDNA for the human MCH receptor, preparation of a recombinant HEK293 cell line which expresses the human MCH receptor, and functional measurements with the recombinant cell line took place in analogy to the description by Audinot et al. (J. Biol. Chem. 276, 13554-13562, 2001). A difference from the reference was, however, the use of the plasmid pEAK8 from EDGE Biosystems (USA) for the construction of the expression vector. The host used for the transfection was a transformed HEK cell line named “PEAK Stable Cells” (likewise from EDGE Biosystems). Functional measurements of the cellular calcium flux after addition of agonist (MCH) in the presence of ligand of the invention took place with the aid of the FLIPR apparatus from Molecular Devices (USA), using protocols of the apparatus manufacturer. The compounds of the invention show a significant inhibition (>30%) of the signal induced by the agonist at a concentration of 100 μM, preferably at 10 μM, particularly preferably at 1 μM, very particularly preferably at 100 nM and even more particularly preferably at 10 nM.
Table 8 summarizes the results which were obtained by the above described calcium […] assay.

| Compound | IC50 |
| --- | --- |
| CCCCOc1ccc2c(c1)CCN(c1ccc(O[C@H]3C[C@H]4CC[C@@H](C3)N4C)c(Cl)c1)C2=O [Example 1, 6-Butoxy-2-[3-chloro-4-((1R,3R,5S)-8-methyl-8-azabicyclo[3.2.1]oct-3-yloxy)-phenyl]-3,4-dihydro-2H-isoquinolin-1-one] | 930 nM |
| CCCCOc1ccc2c(c1)CCN(c1ccc(OCCN3CCCC3)c(OC)c1)C2=O [Example 6] | 270 nM |
| CCCCOc1ccc2c(c1)CCN(c1ccc(OC[C@@H]3CCCN4CCCC[C@H]34)cc1)C2=O [Example 9] | 870 nM |
| COCCOc1ccc2c(c1)CCN(c1ccc(OCCN3CCCC3)c(OC)c1)C2=O [Example 15] | 5440 nM |
| CN1[C@@H]2CC[C@H]1C[C@@H](Oc1ccc(N3CCc4cc(OCC5CCC5)ccc4C3=O)cc1Cl)C2 [Example 17] | 1140 nM |
| CN1[C@@H]2CC[C@H]1C[C@@H](Oc1ccc(N3CCc4cc(OC5CSC5)ccc4C3=O)cc1Cl)C2 [Example 26, 2-[3-Chloro-4-((1R,3R,5S)-8-methyl-8-azabicyclo[3.2.1]oct-3-yloxy)phenyl]-6-(thietan-3-yloxy)-3,4-dihydro-2H-isoquinolin-1-one] | 14800 nM |
| CN1[C@@H]2CC[C@H]1C[C@@H](Oc1ccc(N3CCc4cc(C#CC5(O)CCCC5)ccc4C3=O)cc1Cl)C2 [Example 34] | 1150 nM |
| CCC(O)C#Cc1ccc2c(c1)CCN(c1ccc(O[C@H]3C[C@H]4CC[C@@H](C3)N4C)c(Cl)c1)C2=O (stereo partly drawn) [Example 42] | 780 nM |
| CN1[C@@H]2CC[C@H]1C[C@@H](Oc1ccc(N3CCc4cc(C#CC(C)(C)O)ccc4C3=O)cc1Cl)C2 [Example 45] | 1110 nM |
| Cc1ccc(-c2cc3c(s2)C(=O)N(c2ccc(OCCN(C)C)cc2)CC3)cc1 [Example 55, 6-[4-(2-Dimethylaminoethoxy)phenyl]-2-p-tolyl-5,6-dihydro-4H-thieno[2,3-c]pyridin-7-one] | 4900 nM |
| CN1[C@@H]2CC[C@H]1C[C@@H](Oc1ccc(-n3ccc4cc(OC[C@@H]5CCCO5)ccc4c3=O)cc1)C2 [Example 56, 2-[4-((1R,3R,5S)-8-Methyl-8-azabicyclo[3.2.1]oct-3-yloxy)phenyl]-6-[(S)-1-(tetrahydrofuran-2-yl)methoxy]-2H-isoquinolin-1-one] | 160 nM |
| COc1cc(-n2ccc3cc(OC[C@@H]4CCCO4)ccc3c2=O)ccc1OCCN1CCCC1 [Example 65] | 130 nM |
| COc1cc(-n2ccc3cc(OC[C@H]4CCCO4)ccc3c2=O)ccc1OC1CN2CCC1CC2 (stereo partly drawn) [Example 69] | 1180 nM |
| Cc1cc(-n2ccc3cc(OC[C@H]4CCCO4)ccc3c2=O)ccc1O[C@H]1C[C@H]2CC[C@@H](C1)N2CC(C)(C)O [Example 72] | 490 nM |
| COCCN1[C@@H]2CC[C@H]1C[C@@H](Oc1ccc(-n3ccc4cc(OC[C@H]5CCCO5)ccc4c3=O)cc1C)C2 [Example 74] | 140 nM |
| O=c1c2ccc(OC[C@H]3CCCO3)cc2ccn1-c1ccc(O[C@H]2C[C@H]3CC[C@@H](C2)N3C2CC2)c(F)c1 [Example 75] | 5010 nM |
| Cc1cc(-n2ccc3cc(OC[C@H]4CCCO4)ccc3c2=O)ccc1O[C@H]1C[C@H]2CC[C@@H](C1)N2Cc1ncc[nH]1 [Example 81] | 460 nM |
| COc1cc(-n2ccc3cc(OC[C@@H]4CCCO4)ccc3c2=O)ccc1OCCN1CC2CCC2C1 (stereo partly drawn) [Example 83, 2-{4-[2-(3-Azabicyclo[3.2.0]hept-3-yl)ethoxy]-3-methoxyphenyl}-6-[(S)-1-(tetrahydrofuran-2-yl)methoxy]-2H-isoquinolin-1-one] | 840 nM |
| COc1cc(-n2ccc3cc(OC[C@@H]4CCCO4)ccc3c2=O)ccc1OCCN1CC2CCCCC2C1 (stereo partly drawn) [Example 84] | 250 nM |
| COc1cc(-n2ccc3cc(OC[C@@H]4CCCO4)ccc3c2=O)ccc1OCCN1C2CCC1CC2 [Example 86] | 210 nM |
| CCCCOc1ccc2c(c1)CCN(c1ccc(O[C@H]3C[C@H]4CC[C@@H](C3)N4CCCF)cc1)C2=O [Example 89, 6-Butoxy-2-{4-[(1R,3R,5S)-8-(3-fluoropropyl)-8-azabicyclo[3.2.1]oct-3-yloxy]phenyl}-3,4-dihydro-2H-isoquinolin-1-one] | 4390 nM |
